Measured values reported in EP0536208B1, “1,2-DIHYDRO-3H-DIBENZISOQUINOLINE-1,3-DIONE ANTICANCER AGENTS” (RESEARCH CORPORATION TECHNOLOGIES, INC., priority 1990, dated 1992).

Tests used:
[1] = tested on: LOVOp32; assay: Activity against human colon tumor cells (MTT assay, 3 day drug exposure); type: cell-based; conditions: cells plated 24 hr. prior to drug addition, read-out: Concentration for 50% inhibition of colony formation for human colon tumors
Method: (§1) For example, the compounds of the present invention were evaluated for cytotoxic activities in cloned human colon carcinomas. The clonogenic assays were conducted in accordance with the procedure described hereinbelow: 1) Colony Forming Assays in Soft Agar: Fresh human or murine tumors are disaggregated into single cell suspensions using mechanical, hypoosmotic and/or enzymatic (trypsin) methods. The single cells (about 5 X 10^4-10^5) are plated in 35 mm plastic petri dishes onto a 1 ml "feeder layer" of 0.3% agar dissolved in growth medium containing 5-10% vol/vol of heat-inactivated fetal bovine serum, molten 0.3% agar and the antibiotics penicillin (100 u/mL) and streptomycin (100 ug/mL). Drug exposures can be performed for one hour or continuously (drugs added to final plating medium). Tumor cell colonies > 60 uM in size are counted by automated image analysis after 10-20 days of incubation in a humidified, 5-10% CO2-gassed environment maintained at 37°C. Inhibition of colony formation is calculated based on comparisons to control (untreated) plates wherein the growth of hundreds of colonies/plate is typical. (Salmon SE, et al., N Engl J Med 298(24):1321-1327, 1978).
(§2) Compounds of the present invention were tested for their in vitro activity in tumor cells sensitive and resistant to standard anti-cancer agents. The tumor cell lines used in this protocol are 8226 human Myeloma^1; 8226/Dox-40^2, L-1210/Murine Leukemia, multidrug resistant L-210/^3, 2780 Human Ovarian Cancer and 2780/AD^4. Each of these resistant cell lines is known as a multidrug resistant or "MDR" cell line. These cell lines produce a 170,00 molecular weight membrane protein termed the P-glycoprotein which acts as an active drug efflux pump. Thus, once a cell produces the P-glycoprotein, it has the capability of pumping out of the cell a large variety of unrelated natural products. […] The protocol for measuring the effectiveness of compounds of the present invention is as follows: 2) In Vitro Tumor Cell Viability Assays Using MTT-Dye: Tumors are processed into a single cell suspension as described above. The cells are plated at a concentration of 3-5 X 10^4/1 mL well into plastic 96-well plates. Growth medium containing 5-10% (vol/vol) heat-inactivated fetal bovine serum and penicillin/streptomycin (as above) is added prior to incubation at 37°C for six days. Afterwards the medium containing the drug is removed, the cells are "washed" by centrifugation in fresh medium or phosphate-buffered saline (pH 7.4). A tetrazolium dye is then added (3,4,5-dimethylthiazol-2-yl)-2,5-diphenyl tetrazolium bromide (MTT). This dye forms a colored formazan product upon activation by mitochondrial reductases in viable cells. Typically, the formazan product is solubilized in acid-propanol or DMSO. The intensity of the color is proportional to viable cell numbers and this is quantitated by spectrophotometric absorbance ([…]) on a micro ELISA plate reader. Test results are calibrated in % control absorbance from untreated tumor cells (Mossman T: J Immunol Meth 65:55-63, 1983). Using the above procedure, Compound 1 was tested for its cytotoxic activity with respect to various tumor cell lines.

[2] = tested on: 205p14; assay: as above; type: cell-based; conditions: cells plated 24 hr. prior to drug addition, read-out: Concentration for 50% inhibition of colony formation for human colon tumors
Method: as §1, §2

[3] = tested on: P-388 lymphocytic leukemia; conditions: mice; cited from earlier work
[4] = tested on: 16-C Mammary Adenocarcinoma; conditions: cited from earlier work
[5] = tested on: SW80p105; assay: Activity against human colon tumor cells (MTT assay, 3 day drug exposure); type: cell-based; conditions: cells plated 24 hr. prior to drug addition, read-out: Concentration for 50% inhibition of colony formation for human colon tumors
Method: as §1
as §2, with “Growth medium containing 5-10% (vol/vol) heat-inactivated fetal bovine serum and penicillin/streptomycin (as above) is added prior to incubation at 37°C for six days.” left out

[6] = tested on: HT29p30; assay: as above; type: cell-based; conditions: cells plated 24 hr. prior to drug addition, read-out: Concentration for 50% inhibition of colony formation for human colon tumors
Method: as §1
as §2, with “Growth medium containing 5-10% (vol/vol) heat-inactivated fetal bovine serum and penicillin/streptomycin (as above) is added prior to incubation at 37°C for six days.” left out

[7] = tested on: M5-76 Sarcoma; conditions: cited from earlier work
[8] = tested on: Colon-38 Adenocarcinoma; conditions: mice; cited from earlier work
[9] = tested on: P-388/ADR (adriamycin-Resis-tant); conditions: mice; cited from earlier work
[10] = tested on: FRESH HUMAN TUMORS; assay: Colony forming assay in fresh human tumors, all tumor types; type: cell-based; conditions: Total of all tumor types; .001 ug/mL continuously; tumor cell survival of less than 50% of control
Method: as §1, with “The” for “For example, the compounds of the present invention were evaluated for cytotoxic activities in cloned human colon carcinomas. The”, “(Salmon SE, et al., N Engl J Med 298(24):1321-1327, 1978).” left out
Fresh human tumor specimens disaggregated to single cell suspensions and exposed to .001 ug/mL of drug continuously. Percent survival represents the fraction of tumor colonies (> 60 uM size) obtained after drug treatment compared to untreated cells of the same tumor. […] Each tumor sample is analyzed in three different petri dishes (i.e., n = 3 for each sample).

| Structure (SMILES) | IC50 [1] [nM] | IC50 [2] [nM] | Comparative Activity From The Literature, ILS (Percentage Increased Lifespan) [3] [ILS] | Comparative Activity From The Literature, Days of Tumor Growth Delay [4] [days] | IC50 [5] [nM] | IC50 [6] [nM] | Comparative Activity From The Literature, Days of Tumor Growth Delay [7] [days] | Comparative Activity From The Literature, Days of Tumor Growth Delay [8] [days] | Comparative Activity From The Literature, ILS (Percentage Increased Lifespan) [9] [ILS] | Overall Response [10] [%] |
| --- | --- | --- | --- | --- | --- | --- | --- | --- | --- | --- |
| CN(C)CCN1C(=O)c2cccc3cc(N)cc(c23)C1=O [Amonafide, amino-N-dimethylaminoethylbenz[de]isoquinoline] | 600 | 160 | 99 | 7 | 570 | 960 | 7 | <7 | 35 | – |
| COc1cccc2c1C(=O)c1c(O)c3c(c(O)c1C2=O)C[C@@](O)(C(=O)CO)C[C@@H]3O[C@H]1C[C@H](N)[C@H](O)[C@H](C)O1 [Doxorubicin] | – | – | 164 | – | – | – | – | 10 | 18 | 20 |
